Results: patent US8021661B2, “Cripto binding molecules” (Biogen Idec MA Inc., priority 2005, dated 2011)

How the values were obtained:
NCCIT xenograft tumors = experiment: Established NCCIT human testicular carcinoma xenografts; assay type: in vivo, athymic nude mice; details: cis-platinum 2 mg/kg/injection SC 3×/wk×6; Day 20 to Day 66
Description: Treatments were initiated on Day 15 when the tumors reached a minimum change in size of 100 mg.
One hundred fifty (150) male athymic nude mice (Harlan Sprague Dawley, Madison, Wis.) were started on the study at seven to eight weeks of age. Animals were acclimated to the laboratory for at least five days prior to implantation of the tumor. Housing was in ventilated cage racks, and food and water were allowed ad libitum.
NCCIT cells were obtained from the American Tissue Type Collection (Manassas, Va.). The cell line was passed in vitro 4 times prior to implantation. Cells were grown in vitro in RPMI-1640+10% fetal bovine serum (FBS) media without antibiotics (5% CO2).
An inoculum of 5×10^6 NCCIT cells in 200 L RPMI-1640 without serum (25%) plus Matrigel (75%) was implanted SC into the right flank area on Day 0. Tumor size and body weight measurements were recorded at least twice weekly beginning on Day 6. On Day 15, mice with tumors with a minimum increase in tumor weight of 100 mg and a maximum increase of 244 mg, excluding tumors with non-progressive growth, were randomized to treatment and control groups (see Table 12). […]
Tumor measurements were determined using digital calipers. Body weights and tumor size measurements were recorded on Day 6 and were continued at least twice weekly until the termination of the study. […]

Calu-6 xenograft tumors = experiment: Established Calu-6 human lung xenografts; assay type: in vivo, athymic nude mice; details: irinotecan 10 mg/kg on Day 13-14, 17-21, 24-26; Day 20 until Day 45
Description: One hundred sixty (160) female athymic nude mice (Harlan Sprague Dawley, Madison, Wis.) were started on the study at eight to nine weeks of age. Animals were acclimated to the laboratory for at least five days prior to implantation of the tumor. Housing was in ventilated cage racks, and food and water were allowed ad libitum.
Calu-6 cells were obtained from the American Tissue Type Collection (Manassas, Va.). The cell line was passed in vitro 11 times prior to implantation. Cells were grown in vitro in RPMI-1640+10% fetal bovine serum (FBS) media without antibiotics (5% CO2). Bacterial cultures were performed on aliquots of the tumor homogenate preparation that was implanted into the mice.
On Day −1, the mice were implanted SC with BioMedics animal ID chips (Model IMI-1000; Seaford, Del.) subcutaneously on the left flank. An inoculum of 5×10^6 Calu-6 cells in 200 μL RPMI-1640 without serum was implanted SC into the right flank area on Day 0. Tumor size and body weight measurements were recorded at least twice weekly beginning on Day 4. When the tumors measured a minimum of 100 mg, the mice were randomized to treatment and control groups (see Table 13). […]
Tumor measurements were determined using digital calipers. Body weights and tumor size measurements were recorded on Day 4 and were continued twice weekly until the termination of the study. […]

BT-474 xenograft tumors = experiment: Established BT-474 human breast tumor xenografts, full-length B3F6.1-DM4; assay type: in vivo, athymic nude mice; details: Taxol 25 mg/kg IP q4d×3 starting Day 15
Description: One hundred forty (140) female athymic nude mice (Harlan Sprague Dawley, Madison, Wis.) were started on the study at ten weeks of age. Animals were acclimated to the laboratory for at least five days prior to implantation of the tumor. Housing was in ventilated cage racks, and food and water were allowed ad libitum.
BT-474 tumors were obtained from cryopreserved solid tumor fragments from a serially passaged in vivo donor line established at Biogen Idec (cryo reg #0141, established originally from cells obtained from the […] (Manassas, Va.)). Tumor fragments were removed from cryopreservation and serially passaged SC in vivo for 3 generations in female athymic nude mice prior to implantation for this study. […]
On Day −1, the mice were implanted with BioMedics animal ID chips (Model IMI-1000; Seaford, Del.) SC on the left flank. […] Tumor size and body weight measurements were recorded at least twice weekly beginning on Day 5. When the tumors measured a minimum of 100 mg (Day 15), mice were randomized to treatment and control groups (see Table 10) based on tumor size and excluding tumors with non-progressive growth. […]
Tumor measurements were determined using digital calipers. Body weights and tumor size measurements were recorded on Day 0 and were continued twice weekly until the termination of the study. […]

[1] = Size exclusion chromatography of purified antibody; assay type: physicochemical; details: purified using only the Protein G column
Description: Antibody was produced and purified using methods described in Example 4 above. […] Reduced and non-reduced purified protein samples were analyzed by SDS-PAGE electrophoresis. Under non-reducing conditions, Form A is expected to migrate as a single 120 kDa homodimer and Form B as a 60 kDa doublet.
Reduced and non-reduced purified protein samples were analyzed by SDS-PAGE electrophoresis. Under these conditions, Form A is expected to migrate as a single 120 kDa homodimer and Form B as a 60 kDa doublet.

Question: Which “inhibition of tumor growth” value (NCCIT xenograft tumors) does the source give for `N.N.[Cl][Pt][Cl]` [Cis-platinum, cisplatin] here?
Answer: significant inhibition (P<0.05) of tumor growth from Day 20 to Day 66

Question: Which “inhibition of tumor growth” value (Calu-6 xenograft tumors) does the source give for `CCc1c2c(nc3ccc(OC(=O)N4CCC(N5CCCCC5)CC4)cc13)-c1cc3c(c(=O)n1C2)COC(=O)[C@]3(O)CC` [Irinotecan, irinotecan] here?
Answer: significant (P<0.001) inhibition of tumor growth

Question: For `CC(=O)O[C@H]1C(=O)[C@@]2(C)[C@H]([C@H](OC(=O)c3ccccc3)[C@]3(O)C[C@H](OC(=O)[C@H](O)[C@@H](NC(=O)c4ccccc4)c4ccccc4)C(C)=C1C3(C)C)[C@]1(OC(C)=O)CO[C@@H]1C[C@@H]2O` [Taxol, paclitaxel], which “inhibition of tumor growth” value (BT-474 xenograft tumors) is on record?
Answer: significant (P<0.05) inhibition of tumor growth from Day 26 to Day 50

B1: chimeric dd-B3F6: CH2 domain-deleted chimeric B3F6 with connecting peptide SEQ ID NO: 5; heavy chain SEQ ID NO: 3, light chain SEQ ID NO: 4 (antibody)
heavy: QVQLQQVGAELVKPGASVKLSCKASGYTFTSYWIHWVKQRPGQGLEWIGENDPSNGRTNYNEKFKNKATLTVDKSSSTAYMHLSSLTSEDSAVYYCSRGPNYFYSMDYWGQGTSVTVSSASTKGPSVFPLAPSSKSTSGGTAALGCLVKDYFPEPVTVSWNSGALTSGVHTFPAVLQSSGLYSLSSVVTVPSSSLGTQTYICNVNHKPSNTKVDKKVEPKSCDKTHTCPPCPEPKSCDTPPPCPRCPAPGGGSSGGGSGGQPREPQVYTLPPSRDELTKNQVSLTCLVKGFYPSDIAVEWESNGQPENNYKTTPPVLDSDGSFFLYSKLTVDKSRWQQGNVFSCSVMHEALHNHYTQKSLSLSPG
light: DFLMTQTPLSLPVSLGDQASISCRSSQSIVHSNGNTYLEWYLQKPGQSPKLLIYKVSNRFSGVPDRFSGSGSGTDFTLKISRVEAEDLGVYYCFQGSHVPLTFGAGTKLELKRTVAAPSVFIFPPSDEQLKSGTASVVCLLNNFYPREAKVQWKVDNALQSGNSQESVTEQDSKDSTYSLSSTLTLSKADYEKHKVYACEVTHQGLSSPVTKSFNRGEC
Question: Which “monomer (size exclusion chromatography)” value [1] does the source give for B1 here?
Answer: 93-98%
